Test results as given in patent US20250206732A1, “COMPOUNDS AND METHODS FOR THE TARGETED DEGRADATION OF KRAS” (Arvinas Operations, Inc., priority 2022, published 2025).

Target: T1, AsPC-1 HiBiT-KRASG12D (Homo sapiens, UniProt P01116, G12D)
T1 construct: insert the HiBiT tag onto the N-terminus of one or more of the endogenous KRAS alleles; endogenous in cells; host or cells: AsPC-1 (ATCC CRL-1682), CRISPR-Cas9 knock-in clone, one tagged allele
Test: HiBiT degradation assay (G12D), AsPC-1 HiBiT-KRASG12D cells
Format: cell-based
Conditions: 24 hours treatment; for Dmax: ASPC1, AsPC-1 HiBiT-KRASG12D cells, maximum degradation observed; for DC50: AsPC-1 HiBiT-KRASG12D cells, HiBiT luminescence
Outline: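 Endogenous KRASG12D levels were measured via an N-terminal HiBiT tag knocked into AsPC-1 cells. Cells received compound titrations for 24 hours, and HiBiT luminescence was detected after a 45-minute lytic reagent incubation at room temperature.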

T1 sequence (P01116 1-188 isoform P01116-2 G12D): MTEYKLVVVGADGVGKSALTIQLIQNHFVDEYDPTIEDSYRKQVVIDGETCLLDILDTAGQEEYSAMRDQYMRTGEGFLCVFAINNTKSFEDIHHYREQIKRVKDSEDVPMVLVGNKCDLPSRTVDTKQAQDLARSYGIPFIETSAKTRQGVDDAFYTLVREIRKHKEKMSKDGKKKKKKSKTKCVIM

| SMILES | Dmax | DC50 |
| --- | --- | --- |
| C#Cc1c(F)ccc2cc(O)cc(-c3ncc4c(N5CC6CCC(C5)N6)nc(OCCN5CCC(CN6CCN(c7cc([C@@H](C(=O)N8C[C@H](O)C[C@H]8C(=O)N[C@@H](C)c8ccc(-c9ccnn9C)cc8)C(C)C)on7)CC6)CC5)nc4c3F)c12 [Compound 170, (2S,4R)-1-[(2S)-2-(3-{4-[(1-{2-[(4-{3,8-diazabicyclo[3.2.1]octan-3-yl}-7-(8-ethynyl-7-fluoro-3-hydroxynaphthalen-1-yl)-8-fluoropyrido[4,3-d]pyrimidin-2-yl)oxy]ethyl}piperidin-4-yl)methyl]piperazin-1-yl}-1,2-oxazol-5-yl)-3-methylbutanoyl]-4-hydroxy-N-[(1S)-1-[4-(1-methyl-1H-pyrazol-5-yl)phenyl]ethyl]pyrrolidine-2-carboxamide] | 20 to 60% | 1000 to 3000 nM |
| C#Cc1c(F)ccc2cc(O)cc(-c3ncc4c(N5CC6CCC(C5)N6)nc(OCCN5CCC(F)(CN6CCN(c7cc([C@@H](C(=O)N8C[C@H](O)C[C@H]8C(=O)N[C@@H](C)c8ccc(-c9ccnn9C)cc8)C(C)C)on7)CC6)CC5)nc4c3F)c12 [Compound 171, (2S,4R)-1-[(2S)-2-(3-{4-[(1-{2-[(4-{3,8-diazabicyclo[3.2.1]octan-3-yl}-7-(8-ethynyl-7-fluoro-3-hydroxynaphthalen-1-yl)-8-fluoropyrido[4,3-d]pyrimidin-2-yl)oxy]ethyl}-4-fluoropiperidin-4-yl)methyl]piperazin-1-yl}-1,2-oxazol-5-yl)-3-methylbutanoyl]-4-hydroxy-N-[(1S)-1-[4-(1-methyl-1H-pyrazol-5-yl)phenyl]ethyl]pyrrolidine-2-carboxamide] | 20 to 60% | 1000 to 3000 nM |
| C#Cc1c(F)ccc2cc(O)cc(-c3ncc4c(N5CC6CCC(C5)N6)nc(OCCN5CCC(F)(CN6CCN(c7cc([C@H](C(=O)N8C[C@H](O)C[C@H]8C(=O)N[C@@H](C)c8ccc(-c9scnc9C)cc8)C(C)C)on7)CC6)CC5)nc4c3F)c12 [Compound 172, (2S,4R)-1-[(2R)-2-(3-{4-[(1-{2-[(4-{3,8-diazabicyclo[3.2.1]octan-3-yl}-7-(8-ethynyl-7-fluoro-3-hydroxynaphthalen-1-yl)-8-fluoropyrido[4,3-d]pyrimidin-2-yl)oxy]ethyl}-4-fluoropiperidin-4-yl)methyl]piperazin-1-yl}-1,2-oxazol-5-yl)-3-methylbutanoyl]-4-hydroxy-N-[(1S)-1-[4-(4-methyl-1,3-thiazol-5-yl)phenyl]ethyl]pyrrolidine-2-carboxamide] | 80 to 100% | < 600 nM |
| C#Cc1c(F)ccc2cc(O)cc(-c3ncc4c(N5CC6CCC(C5)N6)nc(OCCN5CCC(CCOc6cc([C@H](C(=O)N7C[C@H](O)C[C@H]7C(=O)N[C@@H](C)c7ccc(-c8scnc8C)cc7)C(C)C)on6)CC5)nc4c3F)c12 [Compound 173, (2S,4R)-1-[(2R)-2-{3-[2-(1-{2-[(4-{3,8-diazabicyclo[3.2.1]octan-3-yl}-7-(8-ethynyl-7-fluoro-3-hydroxynaphthalen-1-yl)-8-fluoropyrido[4,3-d]pyrimidin-2-yl)oxy]ethyl}piperidin-4-yl)ethoxy]-1,2-oxazol-5-yl}-3-methylbutanoyl]-4-hydroxy-N-[(1S)-1-[4-(4-methyl-1,3-thiazol-5-yl)phenyl]ethyl]pyrrolidine-2-carboxamide] | 80 to 100% | < 600 nM |
| C#Cc1c(F)ccc2cc(O)cc(-c3ncc4c(N5CC6CCC(C5)N6)nc(OCCN5CCC(CCOc6cc([C@@H](C(=O)N7C[C@H](O)C[C@H]7C(=O)N[C@@H](C)c7ccc(-c8scnc8C)cc7)C(C)C)on6)CC5)nc4c3F)c12 [Compound 174, (2S,4R)-1-[(2S)-2-{3-[2-(1-{2-[(4-{3,8-diazabicyclo[3.2.1]octan-3-yl}-7-(8-ethynyl-7-fluoro-3-hydroxynaphthalen-1-yl)-8-fluoropyrido[4,3-d]pyrimidin-2-yl)oxy]ethyl}piperidin-4-yl)ethoxy]-1,2-oxazol-5-yl}-3-methylbutanoyl]-4-hydroxy-N-[(1S)-1-[4-(4-methyl-1,3-thiazol-5-yl)phenyl]ethyl] pyrrolidine-2-carboxamide] | 80 to 100% | < 600 nM |
| C#Cc1c(F)ccc2cc(O)cc(-c3ncc4c(N5CC6CCC(C5)N6)nc(OCCN5CCC(C(C)(C)N6CCN(c7cc([C@H](C(=O)N8C[C@H](O)C[C@H]8C(=O)N[C@@H](C)c8ccc(-c9scnc9C)cc8)C(C)C)on7)CC6)CC5)nc4c3F)c12 [Compound 175, (2S,4R)-1-[(2R)-2-(3-{4-[2-(1-{2-[(4-{3,8-diazabicyclo[3.2.1]octan-3-yl}-7-(8-ethynyl-7-fluoro-3-hydroxynaphthalen-1-yl)-8-fluoropyrido[4,3-d]pyrimidin-2-yl)oxy]ethyl}piperidin-4-yl)propan-2-yl]piperazin-1-yl}-1,2-oxazol-5-yl)-3-methylbutanoyl]-4-hydroxy-N-[(1S)-1-[4-(4-methyl-1,3-thiazol-5-yl)phenyl]ethyl] pyrrolidine-2-carboxamide] | 80 to 100% | < 600 nM |
| C#Cc1c(F)ccc2cc(O)cc(-c3ncc4c(N5CC6CCC(C5)N6)nc(OCCN5CCC(C6CCN(c7cc([C@H](C(=O)N8C[C@H](O)C[C@H]8C(=O)N[C@@H](C)c8ccc(-c9scnc9C)cc8)C(C)C)on7)CC6)CC5)nc4c3F)c12 [Compound 176, (2S,4R)-1-[(2R)-2-[3-(1′-{2-[(4-{3,8-diazabicyclo[3.2.1]octan-3-yl}-7-(8-ethynyl-7-fluoro-3-hydroxynaphthalen-1-yl)-8-fluoropyrido[4,3-d]pyrimidin-2-yl)oxy]ethyl}-[4,4′-bipiperidin]-1-yl)-1,2-oxazol-5-yl]-3-methylbutanoyl]-4-hydroxy-N-] | 80 to 100% | < 600 nM |
| C#Cc1c(F)ccc2cc(O)cc(-c3ncc4c(N5CC6CCC(C5)N6)nc(OCCN5CCC(C6CCN(c7cc([C@@H](C(=O)N8C[C@H](O)C[C@H]8C(=O)N[C@@H](C)c8ccc(-c9scnc9C)cc8)C(C)C)on7)CC6)CC5)nc4c3F)c12 [Compound 177, (2S,4R)-1-[(2S)-2-[3-(1′-{2-[(4-{3,8-diazabicyclo[3.2.1]octan-3-yl}-7-(8-ethynyl-7-fluoro-3-hydroxynaphthalen-1-yl)-8-fluoropyrido[4,3-d]pyrimidin-2-yl)oxy]ethyl}-[4,4′-bipiperidin]-1-yl)-1,2-oxazol-5-yl]-3-methylbutanoyl]-4-hydroxy-N-[(1S)-1-[4-(4-methyl-1,3-thiazol-5-yl)phenyl]ethyl]pyrrolidine-2-carboxamide] | 60 to 80% | < 600 nM |
| C#Cc1c(F)ccc2cc(O)cc(-c3ncc4c(N5CC6CCC(C5)N6)nc(OCCN5CCC(CN6CCN(c7cnc(C(=O)N[C@H](C(=O)N8C[C@H](O)C[C@H]8C(=O)N[C@@H](C)c8ccc(-c9scnc9C)cc8)C(C)(C)C)cn7)CC6)CC5)nc4c3F)c12 [Compound 179, 5-{4-[(1-{2-[(4-{3,8-diazabicyclo[3.2.1]octan-3-yl}-7-(8-ethynyl-7-fluoro-3-hydroxynaphthalen-1-yl)-8-fluoropyrido[4,3-d]pyrimidin-2-yl)oxy]ethyl}piperidin-4-yl)methyl]piperazin-1-yl}-N-[(2S)-1-[(2S,4R)-4-hydroxy-2-{[(1S)-1-[4-(4-methyl-1,3-thiazol-5-yl)phenyl]ethyl]carbamoyl}pyrrolidin-1-yl]-3,3-dimethyl-1-oxobutan-2-yl]pyrazine-2-carboxamide] | 80 to 100% | < 600 nM |
| CCc1cccc2cc(O)cc(-c3ncc4c(N5CC6CCC(C5)N6)nc(N5CC(N6CCC(CC7CN(c8cc([C@@H](C(=O)N9C[C@H](O)C[C@H]9C(=O)N[C@@H](C)c9ccc(-c%10scnc%10C)cc9)C(C)C)on8)C7)CC6)C5)nc4c3F)c12 [Compound 180] |  | > 3000 nM |
| CCc1cccc2cc(O)cc(-c3ncc4c(N5CC6CCC(C5)N6)nc(OC[C@H]5CN(CC6CN(c7cc([C@@H](C(=O)N8C[C@H](O)C[C@H]8C(=O)N[C@@H](C)c8ccc(-c9scnc9C)cc8)C(C)C)on7)C6)CCN5C)nc4c3F)c12 [Compound 181, (2S,4R)-1-[(2S)-2-[3-(3-{[(3R)-3-{[(4-{3,8-diazabicyclo[3.2.1]octan-3-yl}-7-(8-ethyl-3-hydroxynaphthalen-1-yl)-8-fluoropyrido[4,3-d]pyrimidin-2-yl)oxy]methyl}-4-methylpiperazin-1-yl]methyl}azetidin-1-yl)-1,2-oxazol-5-yl]-3-methylbutanoyl]-4-hydroxy-N-[(1S)-1-[4-(4-methyl-1,3-thiazol-5-yl)phenyl]ethyl]pyrrolidine-2-carboxamide] |  | > 3000 nM |
| CCc1cccc2cc(O)cc(-c3ncc4c(N5CC6CCC(C5)N6)nc(N5CC(CN6CCC(CC7CN(c8cc([C@H](C(=O)N9C[C@H](O)C[C@H]9C(=O)N[C@@H](C)c9ccc(-c%10scnc%10C)cc9)C(C)C)on8)C7)CC6)C5)nc4c3F)c12 [Compound 182, (2S,4R)-1-[(2R)-2-(3-{3-[(1-{[1-(4-{3,8-diazabicyclo[3.2.1]octan-3-yl}-7-(8-ethyl-3-hydroxynaphthalen-1-yl)-8-fluoropyrido[4,3-d]pyrimidin-2-yl)azetidin-3-yl]methyl}piperidin-4-yl)methyl]azetidin-1-yl}-1,2-oxazol-5-yl)-3-methylbutanoyl]-4-hydroxy-N-[(1S)-1-[4-(4-methyl-1,3-thiazol-5-yl)phenyl]ethyl]pyrrolidine-2-carboxamide] | 20 to 60% | < 600 nM |
